Experimental data reported in patent publication US20220081412A1, “QUINOLINYL-PYRAZINE-CARBOXAMIDE COMPOUNDS AND USES THEREOF” (The Regents of the University of Michigan, priority 2018, published 2022).

Tested on: MIA PaCa-2 cells
Assay: Bru-seq analysis for nascent RNA synthesis (log2FC of genes, GSEA gene sets)
Format: cell-based, human
Settings: 4 h
[1] = PYEON_CANCER_HEAD_AND_NECK_VS_CERVICAL_UP, C2, downregulated
[2] = RIGGINS_TAMOXIFEN_RESISTANCE_DN, C2, downregulated
[3] = SCHLOSSER_MYC_TARGETS_AND_SERUM_RESPONSE_DN, C2, downregulated
[4] = SENGUPTA_NASOPHARYNGEAL_CARCINOMA_UP, C2, downregulated
[5] = SENGUPTA_NASOPHARYNGEAL_CARCINOMA_WITH_LMP1_UP, C2, downregulated
[6] = SHEN_SMARCA2_TARGETS_UP, C2, downregulated
[7] = TAKEDA_TARGETS_OF_NUP98_HOXA9_FUSION_3D_UP, C2, downregulated
[8] = TAKEDA_TARGETS_OF_NUP98_HOXA9_FUSION_6HR_UP, C2, downregulated
[9] = TCANNTGAY_SREBP1_01, TFBT, upregulated
[10] = TGANNYRGCA_TCF11MAFG_01, TFBT, upregulated
[11] = TTTNNANAGCYR_UNKNOWN, TFBT, upregulated
[12] = YANG_BREAST_CANCER_ESR1_LASER_DN, C2, downregulated
[13] = ZHANG_BREAST_CANCER_PROGENITORS_UP, C2, downregulated
[14] = ZHANG_TLX_TARGETS_36HR_DN, C2, downregulated
[15] = ZHANG_TLX_TARGETS_DN, C2, downregulated
[16] = ZHENG_BOUND_BY_FOXP3, C2, downregulated
[17] = top upregulated noncoding genes, MIA PaCa-2 cells
[18] = top upregulated protein-coding genes, MIA PaCa-2 cells

Compound Cc1cc(NC(=O)c2cnc(N3CCNCC3)cn2)c2ncccc2c1 [J28, N-(6-methylquinolin-8-yl)-5-(piperazin-1-yl)pyrazine-2-carboxamide] has an ES (OCT1Q5_01, TFBT, upregulated) of 0.383, an NES (OCT1Q5_01, TFBT, upregulated) of 1.568 and an ES (PEA3_Q6, TFBT, upregulated) of 0.389. For the same compound, the NES (PEA3_Q6, TFBT, upregulated) was 1.645, the log2FC (PHLDB2, downregulated protein-coding gene) was −0.93 and the log2FC (PTX3, downregulated protein-coding gene) was −1.04. For the same compound, the ES [1] was −0.405, the NES [1] was −1.998 and the ES [2] was −0.420. The NES [2] was −1.996, the log2FC (RNVU1-6, downregulated noncoding gene) was −1.29 and the ES [3] was −0.485. For the same compound, the NES [3] was −1.909, the ES [4] was −0.477 and the NES [4] was −2.454. For the same compound, the ES [5] was −0.503, the NES [5] was −2.612 and the ES [6] was −0.402. It also gave an NES [6] of −2.248, a log2FC (SLCO1B3, downregulated protein-coding gene) of −0.96 and a log2FC (SPTY2D1-AS1, downregulated protein-coding gene) of −0.93. It also gave an ES (SREBP1_01, TFBT, upregulated) of 0.417, an NES (SREBP1_01, TFBT, upregulated) of 1.757 and an ES (SREBP1_Q6, TFBT, upregulated) of 0.386. For the same compound, the NES (SREBP1_Q6, TFBT, upregulated) was 1.611, the ES (SRF_01, TFBT, upregulated) was 0.541 and the NES (SRF_01, TFBT, upregulated) was 1.708. The log2FC (SRRM1P2, downregulated noncoding gene) was −0.97, the ES [7] was −0.469 and the NES [7] was −1.940. It also gave an ES [8] of −0.667, an NES [8] of −2.252 and an ES [9] of 0.399. The NES [9] was 1.843, the log2FC (TEX15, downregulated protein-coding gene) was −0.95 and the ES [10] was 0.359. The NES [10] was 1.552, the ES [11] was 0.502 and the NES [11] was 1.859. For the same compound, the log2FC (TXNRD3NB, downregulated protein-coding gene) was −0.86, the log2FC (WWTR1-IT1, downregulated noncoding gene) was −1.14 and the ES [12] was −0.521. For the same compound, the NES [12] was −1.924, the ES [13] was −0.342 and the NES [13] was −1.914. The ES [14] was −0.518, the NES [14] was −2.618 and the ES [15] was −0.457. For the same compound, the NES [15] was −2.032, the ES [16] was −0.362 and the NES [16] was −1.929. The log2FC (ZNF37A, downregulated protein-coding gene) was −0.93, the log2FC (ZNF816, downregulated protein-coding gene) was −1.58 and the “log2FC AC027307.3” value [17] was 1.20. For the same compound, the “log2FC AC068473.5” value [17] was 0.84, the “log2FC AC090826.2” value [17] was 0.90 and the “log2FC AC092279.1” value [17] was 0.84. For the same compound, the “log2FC AC106886.2” value [17] was 1.10, the “log2FC AC141586.1” value [17] was 1.01 and the “log2FC AC239868.4” value [17] was 0.91. The “log2FC AL049543.1” value [17] was 1.21, the “log2FC AP001065.1” value [17] was 0.95 and the “log2FC KRT18P31” value [17] was 0.89. The “log2FC PCBP2P1” value [17] was 0.84, the “log2FC RN7SL16P” value [17] was 1.19 and the “log2FC RPS16P5” value [17] was 0.97. For the same compound, the “log2FC SLC2A1-AS1” value [17] was 1.22, the “log2FC SNHG20” value [17] was 1.06 and the “log2FC SNORA3B” value [17] was 0.88. For the same compound, the “log2FC SNORA65” value [17] was 1.28, the “log2FC SNORA73B” value [17] was 0.91 and the “log2FC SNORA74D” value [17] was 1.76. The “log2FC SNORD15A” value [17] was 0.86, the “log2FC SNORD15B” value [17] was 0.90 and the “log2FC SNORD17” value [17] was 1.17. The “log2FC ST7-AS1” value [17] was 0.95, the “log2FC SYPL1P2” value [17] was 0.85 and the “log2FC TDRKH-AS1” value [17] was 0.90. For the same compound, the “log2FC ABHD14B” value [18] was 1.28, the “log2FC AC099811.2” value [18] was 1.35 and the “log2FC APRT” value [18] was 1.39. For the same compound, the “log2FC COMMD5” value [18] was 1.31, the “log2FC DBP” value [18] was 1.90 and the “log2FC DDX28” value [18] was 1.46. For the same compound, the “log2FC DHCR7” value [18] was 1.44, the “log2FC DOLK” value [18] was 1.70 and the “log2FC FASN” value [18] was 1.28. The “log2FC H2AFX” value [18] was 1.36, the “log2FC HIST1H1D” value [18] was 1.36 and the “log2FC HIST1H2BF” value [18] was 1.63. The “log2FC HIST1H3B” value [18] was 1.82, the “log2FC HIST1H3C” value [18] was 1.45 and the “log2FC HIST1H3I” value [18] was 1.28. The “log2FC INSIG1” value [18] was 1.65, the “log2FC MVK” value [18] was 1.37 and the “log2FC ORMDL3” value [18] was 1.39. For the same compound, the “log2FC PCYT2” value [18] was 2.03, the “log2FC POP7” value [18] was 1.30 and the “log2FC RNF26” value [18] was 1.71. The “log2FC SCD” value [18] was 1.67 and the “log2FC SDR39U1” value [18] was 1.67.
